Results taken from patent publication US4730069A, “Cis-platinum complexes with a pentaerythritol derivative as the ligand, a process for their preparation and a pharmaceutical agent containing these compounds” (Behringwerke Aktiengesellschaft, priority 1984, dated 1988).

System: NMRI mice
Test: Determination of the acute toxicity (NMRI mice, intravenous)
Format: in vivo
Settings: intravenous on day 0, survival on day 14, which LD not stated
Description: To determine the acute toxicity, NMRI mice are injected intravenously on day 0 with different doses of the test substance, dissolved in 0.5 ml of physiological saline solution. Control groups receive only 0.5 ml of physiological saline solution. 5 mice are used per concentration of the test substance. On day 14, the number of surviving mice is determined and the LD5, LD50 and LD95 are determined therefrom by the Litchfield Wilcoxon method. The toxicity of the compounds described here is summarized in comparison with cisplatin in Table 1.

## 5,5-Bis-(aminomethyl)-2-methyl-2-octadecyl-1,3-dioxane-platinum(II) hydroxide [Compound 57]
  Acute toxicity (LD5, LD50 and LD95 by the Litchfield Wilcoxon method) (Table 1, column c): 3.4
